≈ marks a conversion by molar mass, not a printed value. Starred links: 1 amine or outer side, 2 acyl side, 3 side chain; linkers in the order of their positions; H or OH if unused. Positions of bridges follow the written chain, without caps; N, C: chain ends. Non-standard residues stand in square brackets, D forms with d. Residues, ends and D or L forms follow the SMILES beside them. X1 = N=C(NCCC[C@H](N[*:1])C(=O)[*:2])N[C@@H]1O[C@H](CO)[C@@H](O[C@H]2O[C@H](CO)[C@@H](O[C@H]3O[C@H](CO)[C@@H](O)[C@H](O)[C@H]3O)[C@H](O)[C@H]2O)[C@H](O)[C@H]1O; X2 = CC(=O)N[C@@H]1[C@@H](O)[C@H](O)[C@@H](CO)O[C@H]1NC(=N)NCCC[C@H](N[*:1])C(=O)[*:2]; R8 = C=CCCCCCC[C@@](C)(N)C(=O)O; S5 = C=CCCC[C@](C)(N)C(=O)O
Assays:
Klebsiella pneumoniae = experiment: Antimicrobial activity against Klebsiella pneumoniae ATCC 13883 assessed as growth inhibition measured after 8 hrs incubation by standard broth dilution assay; format: functional
Staphylococcus aureus = experiment: Antimicrobial activity against methicillin-resistant Staphylococcus aureus ATCC 43300 assessed as growth inhibition measured after 8 hrs incubation by standard broth dilution assay; format: functional
Pseudomonas aeruginosa = experiment: Antimicrobial activity against Pseudomonas aeruginosa ATCC 27853 assessed as growth inhibition measured after 8 hrs incubation by standard broth dilution assay; format: functional
Streptococcus pneumoniae = experiment: Antimicrobial activity against Streptococcus pneumoniae ATCC 49619 assessed as growth inhibition measured after 8 hrs incubation by standard broth dilution assay; format: functional
[1] = Hemolytic activity in BALB/c mouse red blood cells assessed as hemolysis incubated for 1 hrs; format: toxicity, cell-based, Erythrocyte; conditions: read-out: HD50

Structure (SMILES)	MIC (Klebsiella pneumoniae) [µg/mL]	MIC (Staphylococcus aureus) [µg/mL]	MIC (Pseudomonas aeruginosa) [µg/mL]	MIC (Streptococcus pneumoniae) [µg/mL]	HC50 at 1 h [1] [µg/mL]
CC(=O)N[C@@H](CCCCN)C(=O)N[C@@H](CCCCN)C(=O)N[C@@H](CCCNC(=N)N)C(=O)N[C@@H](CCCCN)C(=O)N[C@@H](Cc1c[nH]c2ccccc12)C(=O)N[C@@H](CCCCN)C(=O)N[C@@H](CCCNC(=N)N)C(=O)N[C@@]1(C)CCC/C=C\CCC[C@@](C)(C(=O)N[C@@H](CCCCN)C(=O)N[C@@]2(C)CCC/C=C\CCC[C@@](C)(C(=O)N[C@@H](CC(C)C)C(=O)N[C@@H](CCCCN)C(=O)N[C@@H](CCCCN)C(=O)N3CCC[C@H]3C(=O)N[C@H](C(=O)N[C@@H](CCCNC(=N)N)C(N)=O)C(C)C)NC(=O)[C@H](CCCNC(=N)N)NC(=O)[C@H](Cc3c[nH]c4ccccc34)NC(=O)[C@H](Cc3ccc(O)cc3)NC2=O)NC(=O)[C@H](CC(C)C)NC(=O)[C@H](CCCCN)NC(=O)[C@H](Cc2ccccc2)NC1=O (Ac-KKRKWKR[S5]FKL[S5]K[S5]YWR[S5]LKKPVR-NH2; staple (Z) 8-12, 14-18)	10.1 (≈ 3.05 µM)	2.5 (≈ 0.754 µM)	2.6 (≈ 0.784 µM)	2.4 (≈ 0.724 µM)	26.5
CC(=O)N[C@@H](CCCCN)C(=O)N[C@@H](CCCCN)C(=O)N[C@@H](CCCNC(=N)N)C(=O)N[C@H](C(=O)N[C@@H](CCCCN)C(=O)N[C@@H](CCCCN)C(=O)N[C@@H](CCCNC(=N)N)C(=O)N[C@@]1(C)CCC/C=C\CCC[C@@](C)(C(=O)N[C@@H](CCCCN)C(=O)N[C@@]2(C)CCC/C=C\CCC[C@@](C)(C(=O)N[C@@H](CC(C)C)C(=O)N[C@@H](CCCCN)C(=O)N[C@@H](CCCCN)C(=O)N3CCC[C@H]3C(=O)N[C@H](C(=O)N[C@@H](CCCNC(=N)N)C(N)=O)C(C)C)NC(=O)[C@H](CCCNC(=N)N)NC(=O)[C@H](Cc3c[nH]c4ccccc34)NC(=O)[C@H](Cc3ccc(O)cc3)NC2=O)NC(=O)[C@H](CC(C)C)NC(=O)[C@H](CCCCN)NC(=O)[C@H](Cc2ccccc2)NC1=O)C(C)C (Ac-KKRVKKR[S5]FKL[S5]K[S5]YWR[S5]LKKPVR-NH2; staple (Z) 8-12, 14-18)	2.5 (≈ 0.774 µM)	2.5 (≈ 0.774 µM)	2.6 (≈ 0.805 µM)	2.4 (≈ 0.743 µM)	56.3
CC(=O)N[C@@H](CCCCN)C(=O)N[C@@H](CCCCN)C(=O)N[C@@H](CCCNC(=N)N)C(=O)N[C@H](C(=O)N[C@@H](CCCCN)C(=O)N[C@@H](CCCCN)C(=O)N[C@@H](CCCNC(=N)N)C(=O)N[C@@]1(C)CCC/C=C\CCC[C@@](C)(C(=O)N[C@@H](CCCCN)C(=O)N[C@@]2(C)CCC/C=C\CCC[C@@](C)(C(=O)N[C@@H](CC(C)C)C(=O)N[C@@H](CCCCN)C(=O)N[C@@H](CCCCN)C(=O)N3CCC[C@H]3C(=O)N[C@H](C(=O)N[C@@H](CCCNC(=N)N[C@@H]3O[C@H](CO)[C@@H](O[C@H]4O[C@H](CO)[C@@H](O[C@H]5O[C@H](CO)[C@@H](O)[C@H](O)[C@H]5O)[C@H](O)[C@H]4O)[C@H](O)[C@H]3O)C(N)=O)C(C)C)NC(=O)[C@H](CCCNC(=N)N)NC(=O)[C@H](Cc3c[nH]c4ccccc34)NC(=O)[C@H](Cc3ccc(O)cc3)NC2=O)NC(=O)[C@H](CC(C)C)NC(=O)[C@H](CCCCN)NC(=O)[C@H](Cc2ccccc2)NC1=O)C(C)C (Ac-KKRVKKR[S5]FKL[S5]K[S5]YWR[S5]LKKPV[X1]-NH2; staple (Z) 8-12, 14-18)	1.1 (≈ 0.296 µM)	1.1 (≈ 0.296 µM)	2.6 (≈ 0.7 µM)	1.1 (≈ 0.296 µM)	80.8
CC(=O)N[C@@H]1[C@@H](O)[C@H](O)[C@@H](CO)O[C@H]1NC(=N)NCCC[C@H](NC(=O)[C@@H](NC(=O)[C@@H]1CCCN1C(=O)[C@H](CCCCN)NC(=O)[C@H](CCCCN)NC(=O)[C@H](CC(C)C)NC(=O)[C@]1(C)CCC/C=C\CCC[C@](C)(NC(=O)[C@H](CCCCN)NC(=O)[C@]2(C)CCC/C=C\CCC[C@](C)(NC(=O)[C@H](CCCNC(=N)N)NC(=O)[C@H](CCCCN)NC(=O)[C@H](CCCCN)NC(=O)[C@@H](NC(=O)[C@H](CCCNC(=N)N)NC(=O)[C@H](CCCCN)NC(=O)[C@H](CCCCN)NC(C)=O)C(C)C)C(=O)N[C@@H](Cc3ccccc3)C(=O)N[C@@H](CCCCN)C(=O)N[C@@H](CC(C)C)C(=O)N2)C(=O)N[C@@H](Cc2ccc(O)cc2)C(=O)N[C@@H](Cc2c[nH]c3ccccc23)C(=O)N[C@@H](CCCNC(=N)N)C(=O)N1)C(C)C)C(N)=O (Ac-KKRVKKR[S5]FKL[S5]K[S5]YWR[S5]LKKPV[X2]-NH2; staple (Z) 8-12, 14-18)	2.5 (≈ 0.729 µM)	2.5 (≈ 0.729 µM)	2.6 (≈ 0.758 µM)	2.4 (≈ 0.699 µM)	82.2
CC(=O)N[C@@H](CC(C)C)C(=O)N[C@@H](CCCCN)C(=O)N[C@@H](CCCNC(=N)N)C(=O)N[C@]1(C)CCCCCC/C=C\CCC[C@@](C)(C(=O)N[C@@H](CC(C)C)C(=O)N[C@@H](CCCCN)C(=O)N[C@@H](CCCNC(=N)N)C(=O)N[C@@H](Cc2ccc(O)cc2)C(=O)N[C@@H](Cc2c[nH]c3ccccc23)C(=O)N[C@@H](CCCNC(=N)N)C(=O)N[C@@H](CCC(N)=O)C(=O)N[C@@H](CC(C)C)C(=O)N[C@@H](CCCCN)C(=O)N[C@@H](CCCCN)C(=O)N2CCC[C@H]2C(=O)N[C@H](C(=O)N[C@@H](CCCNC(=N)N)C(N)=O)C(C)C)NC(=O)[C@H](CCCCN)NC(=O)[C@H](Cc2ccccc2)NC(=O)[C@H](C(C)C)NC(=O)[C@H](CCCNC(=N)N)NC(=O)[C@H](CCCCN)NC(=O)[C@H](Cc2c[nH]c3ccccc23)NC1=O (Ac-LKR[R8]WKRVFK[S5]LKRYWRQLKKPVR-NH2; staple (Z) 4-11)	38 (≈ 11.4 µM)	4.9 (≈ 1.46 µM)	5 (≈ 1.49 µM)	37.7 (≈ 11.3 µM)	–
CC(=O)N[C@@H](CC(C)C)C(=O)N[C@@H](CCCCN)C(=O)N[C@@H](CCCNC(=N)N)C(=O)N[C@@]1(C)CCC/C=C\CCC[C@@](C)(C(=O)N[C@@H](Cc2ccccc2)C(=O)N[C@@H](CCCCN)C(=O)N[C@@H](CC(C)C)C(=O)N[C@@H](CC(C)C)C(=O)N[C@@H](CCCCN)C(=O)N[C@@H](CCCNC(=N)N)C(=O)N[C@@H](Cc2ccc(O)cc2)C(=O)N[C@@H](Cc2c[nH]c3ccccc23)C(=O)N[C@@H](CCCNC(=N)N)C(=O)N[C@@H](CCC(N)=O)C(=O)N[C@@H](CC(C)C)C(=O)N[C@@H](CCCCN)C(=O)N[C@@H](CCCCN)C(=O)N2CCC[C@H]2C(=O)N[C@H](C(=O)N[C@@H](CCCNC(=N)N)C(N)=O)C(C)C)NC(=O)[C@H](CCCNC(=N)N)NC(=O)[C@H](CCCCN)NC(=O)[C@H](Cc2c[nH]c3ccccc23)NC1=O (Ac-LKR[S5]WKR[S5]FKLLKRYWRQLKKPVR-NH2; staple (Z) 4-8)	38 (≈ 11.4 µM)	2.5 (≈ 0.753 µM)	5 (≈ 1.51 µM)	37.7 (≈ 11.4 µM)	–
CC(=O)N[C@@H](CC(C)C)C(=O)N[C@]1(C)CCCCCC/C=C\CCC[C@@](C)(C(=O)N[C@@H](CCCCN)C(=O)N[C@@H](CC(C)C)C(=O)N[C@@H](CC(C)C)C(=O)N[C@@H](CCCCN)C(=O)N[C@@H](CCCNC(=N)N)C(=O)N[C@@H](Cc2ccc(O)cc2)C(=O)N[C@@H](Cc2c[nH]c3ccccc23)C(=O)N[C@@H](CCCNC(=N)N)C(=O)N[C@@H](CCC(N)=O)C(=O)N[C@@H](CC(C)C)C(=O)N[C@@H](CCCCN)C(=O)N[C@@H](CCCCN)C(=O)N2CCC[C@H]2C(=O)N[C@H](C(=O)N[C@@H](CCCNC(=N)N)C(N)=O)C(C)C)NC(=O)[C@H](C(C)C)NC(=O)[C@H](CCCNC(=N)N)NC(=O)[C@H](CCCCN)NC(=O)[C@H](Cc2c[nH]c3ccccc23)NC(=O)[C@H](C(C)C)NC(=O)[C@H](CCCNC(=N)N)NC1=O (Ac-L[R8]RVWKRV[S5]KLLKRYWRQLKKPVR-NH2; staple (Z) 2-9)	38 (≈ 11.6 µM)	9.7 (≈ 2.95 µM)	9.8 (≈ 2.98 µM)	37.7 (≈ 11.5 µM)	–
CC(=O)N[C@]1(C)CCCCCC/C=C\CCC[C@@](C)(C(=O)N[C@@H](Cc2ccccc2)C(=O)N[C@@H](CCCCN)C(=O)N[C@@H](CC(C)C)C(=O)N[C@@H](CC(C)C)C(=O)N[C@@H](CCCCN)C(=O)N[C@@H](CCCNC(=N)N)C(=O)N[C@@H](Cc2ccc(O)cc2)C(=O)N[C@@H](Cc2c[nH]c3ccccc23)C(=O)N[C@@H](CCCNC(=N)N)C(=O)N[C@@H](CCC(N)=O)C(=O)N[C@@H](CC(C)C)C(=O)N[C@@H](CCCCN)C(=O)N[C@@H](CCCCN)C(=O)N2CCC[C@H]2C(=O)N[C@H](C(=O)N[C@@H](CCCNC(=N)N)C(N)=O)C(C)C)NC(=O)[C@H](CCCNC(=N)N)NC(=O)[C@H](CCCCN)NC(=O)[C@H](Cc2c[nH]c3ccccc23)NC(=O)[C@H](C(C)C)NC(=O)[C@H](CCCNC(=N)N)NC(=O)[C@H](CCCCN)NC1=O (Ac-[R8]KRVWKR[S5]FKLLKRYWRQLKKPVR-NH2; staple (Z) 1-8)	38 (≈ 11.4 µM)	4.9 (≈ 1.46 µM)	9.8 (≈ 2.93 µM)	9.6 (≈ 2.87 µM)	–
CC(=O)N[C@@]1(C)CCC/C=C\CCC[C@@](C)(C(=O)N[C@@H](CCCCN)C(=O)N[C@@H](CCCNC(=N)N)C(=O)N[C@H](C(=O)N[C@@H](Cc2ccccc2)C(=O)N[C@@H](CCCCN)C(=O)N[C@@H](CC(C)C)C(=O)N[C@@H](CC(C)C)C(=O)N[C@@H](CCCCN)C(=O)N[C@@H](CCCNC(=N)N)C(=O)N[C@@H](Cc2ccc(O)cc2)C(=O)N[C@@H](Cc2c[nH]c3ccccc23)C(=O)N[C@@H](CCCNC(=N)N)C(=O)N[C@@H](CCC(N)=O)C(=O)N[C@@H](CC(C)C)C(=O)N[C@@H](CCCCN)C(=O)N[C@@H](CCCCN)C(=O)N2CCC[C@H]2C(=O)N[C@H](C(=O)N[C@@H](CCCNC(=N)N)C(N)=O)C(C)C)C(C)C)NC(=O)[C@H](C(C)C)NC(=O)[C@H](CCCNC(=N)N)NC(=O)[C@H](CCCCN)NC1=O (Ac-[S5]KRV[S5]KRVFKLLKRYWRQLKKPVR-NH2; staple (Z) 1-5)	38 (≈ 11.8 µM)	2.5 (≈ 0.777 µM)	2.6 (≈ 0.808 µM)	37.7 (≈ 11.7 µM)	–
